According to US20030190671A1, “Use of metabolic phenotyping in individualized treatment with amonafide” (McGill University, priority 2001, published 2003):
Like-named read-outs stand apart in the source and are kept apart here.

Assays:
[1] = cited from earlier work
[2] = Stability of reconstituted amonafide solution; assay type: physicochemical
Description: Intact vials should be stored under refrigeration (2-8° C.). […] However, the reconstituted solution contains no antibacterial preservatives and should be used immediately. It is advised that the reconstituted product be discarded 8 hours after initial entry.
Add the appropriate dose of amonafide to a bag of 100 mL of normal saline prior to administration. Amonafide is very unstable in dextrose-containing solutions and these should not be used for reconstitution or for administration.

[3] = system: L1210 leukemia cells lines; details: cited from earlier work
[4] = system: p388 leukemia cells lines; details: cited from earlier work
[5] = system: B16 melanoma; details: cited from earlier work
[6] = system: M5076 sarcoma cell line; details: cited from earlier work
[7] = mice, dogs, and rats; cited from earlier work
[8] = dogs; single-bolus and daily for 5 days schedules, highest doses administered; cited from earlier work
[9] = cited from earlier work; remark: listed apart in the source
[10] = human; cited from earlier work
[11] = system: NAT2; details: cancer individuals phenotyped with caffeine; cited from earlier work
[12] = target: T1, CYP1A2 (Homo sapiens, UniProt P05177); details: in vitro; cited from earlier work
T1 sequence (P05177 1-516): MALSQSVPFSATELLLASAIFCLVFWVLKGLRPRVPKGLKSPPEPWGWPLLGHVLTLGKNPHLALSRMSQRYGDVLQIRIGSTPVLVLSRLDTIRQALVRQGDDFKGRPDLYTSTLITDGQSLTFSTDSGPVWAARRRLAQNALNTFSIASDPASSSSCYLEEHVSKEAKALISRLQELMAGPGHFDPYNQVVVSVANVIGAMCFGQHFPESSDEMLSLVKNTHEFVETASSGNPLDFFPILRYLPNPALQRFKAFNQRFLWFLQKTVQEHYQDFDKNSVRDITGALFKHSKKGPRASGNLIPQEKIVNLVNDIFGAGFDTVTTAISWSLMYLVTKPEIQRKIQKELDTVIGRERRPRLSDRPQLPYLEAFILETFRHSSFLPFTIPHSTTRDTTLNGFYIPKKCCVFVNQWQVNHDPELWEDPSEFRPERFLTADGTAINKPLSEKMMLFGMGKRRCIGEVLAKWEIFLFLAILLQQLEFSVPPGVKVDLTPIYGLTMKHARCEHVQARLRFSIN

[13] = system: non-small cell lung cancer, prostate cancer and breast cancer; details: cited from earlier work
[14] = Felder et al.; cited from earlier work
[15] = system: CYP2D6; details: cited from earlier work
[16] = system: AAMU-Ab; experiment: Competitive antigen ELISA, cross-reactivity of AAMU-Ab; assay type: binding, rabbit; details: competitive antigen ELISA; 0 = absence of inhibition or inhibition no higher than 40% at the highest concentration tested (5×10^−3 M)
Description: (§1) Competitive Antigen ELISA
(§2) Buffers and water without additives are filtered through millipore filters and kept for 1 week. BSA, antibodies, Tween™ 20 and horse radish peroxidase conjugates are added to these buffers and water just prior to use. Urine samples are usually collected 4 hours after drinking a cup of coffee (instant or brewed with approximately 100 mg of caffeine per cup) and stored at −80° C. The urine samples are diluted 10 times with sodium phosphate buffer (620 mosm, pH 7.50) and are subsequently diluted with water to give concentrations of AAMU and 1X no higher than 3×10^−6 M in the ELISA. All the pipettings are done with an eight-channel pipette, except those of the antibody and sample solutions. Starting with the last well, 100 μL of a carbonate buffer (100 mM, pH 9.6) containing 2.5 μg mL-1 antibodies are added to each well. After 90 min. at room temperature, the wells are washed three times with 100 mL of TPB: isotonic sodium phosphate buffer (310 mosm, pH 7.50) containing 0.05% Tween™ 20.
(§3) After the initial wash, unoccupied sites are blocked by incubation for 90 min. at room temperature with 100 μL TBP containing 3% BSA. The wells are washed four times with 100 […] TPB. […] The microplate is gently shaken with an orbital shaker at room temperature for 3-4 hours. The wells are washed three times with 100 μL TPB containing 1% BSA and three times with water containing 0.05% Tween™ 20. To the washed plate is added 150 μL of a substrate buffer composed of citric acid (25 mM) and sodium phosphate dibasic buffer (50 mM, pH 5.0) containing 0.06% hydrogen peroxide and 0.04% o-phenylenediamine hydrochloride.
as §2, with “were” for “are”, “They were” for “The urine samples are”, “mL^−1” for “mL-1”, “was pipetted.” for “are added to each well.”, “μL” for “mL”
(§4) After the initial wash, unoccupied sites were blocked by incubation for 90 min. at room temperature with 100 μL TBP containing 3% BSA. The wells were washed four times with 100 μL TPB. […] The microplate was gently shaken with an orbital shaker at room temperature for 3-4 hours. The wells were washed three times with 100 μL with TPB containing 1% BSA and three times with water containing 0.05% Tween™ 20. To the washed plate was added 150 μL of a substrate buffer composed of citric acid (25 mM) and sodium phosphate dibasic buffer (50 mM, pH 5.0) containing 0.06% hydrogen peroxide and 0.04% o-phenylenediamine hydrochloride. After 20 min. at room temperature with shaking, the reaction was stopped with 50 μL of 2.5 N HCl.
(§5) The cross reactivities of AAMU-Ab and 1X-Ab were tested using a wide variety of caffeine metabolites and structural analogs (Table 2 below).

[17] = system: 1X-Ab; experiment: Competitive antigen ELISA, cross-reactivity of 1X-Ab; assay type: binding, rabbit; details: competitive antigen ELISA; 0 = absence of inhibition or inhibition no higher than 40% at the highest concentration tested (5×10^−3 M)
Description: as §1, §2, §3
as §2, with “were” for “are”, “They were” for “The urine samples are”, “mL^−1” for “mL-1”, “was pipetted.” for “are added to each well.”, “μL” for “mL”
as §4, §5

[18] = system: Caffeine-Ab; experiment: Competitive antigen ELISA, antibody specificity of caffeine-Ab; assay type: binding, rabbit; details: hypothesized ideal antibody specificity; 0 = no inhibition or no higher than 40% at 5×10^−3 M
Description: as §1
(§6) BSA, antibodies, Tween™ 20 and horse radish peroxidase are added to buffers and water just prior to use. Urine samples are usually collected four hours after drinking a cup of coffee (instant or brewed with approximately 100 mg of caffeine per cup) and stored at −20° C. as 1-mL aliquots in 1.5-mL microtubes. For the ELISA, the urine samples are diluted with isotonic sodium phosphate buffer, pH 7.5 (310 mosM) to give concentrations of caffeine, 1.7-DMX and 1,7-DMU no higher than 3×10^−6 M in the microtiter plate wells. Wells of the ELISA plate are washed with a Nunc-Immuno wash 12 washer. Sixteen milliliters of a solution of 6.6 μg ml^−1 of isolated IgG antibodies is prepared in a 100 mM sodium carbonate buffer, pH 9.6, and 150 μL of this solution is pipetted in each well of a microtiter plate using a eight channel pipet (Brinkmann Transferpette™-8 50-200 μL) and 200 μL Flex tips from Brinkmann). After coating the wells with antibodies at 4° C. for 20 hours, the wells are washed 3 times with the isotonic sodium phosphate buffer containing 0.05% Tween™ 20 (IPBT) and properly drained by inverting the plate and absorbing the liquid on to a piece of paper towel. Thirty milliliters of a solution of a IPBT solution containing 1% BSA is prepared and 150 μL of this solution is pipetted in each well using a eight channel pipet (Brinkmann Transferpet-te™-8 50-200 μL) and 200 μL yellow tips (Sarstedt yellow tips for P200 Gilson Pipetman). After 3 hours at room temperature, the wells are washed 3 times with IPBT solution and drained. Samples of 400 μL for determination of caffeine, 1,7-DMX and 1,7-DMU are prepared in 1.5-mL microtubes using Sarstedt yellow tips and a P200 Gilson Pipetman. Then, 200 μL of each sample are pipetted in duplicate in a Falcon 96-well microtest tissue culture plate according to the pattern shown in FIG. 23, using Sarstedt yellow tips and a P200 Gilson Pipetman. Using an eight channel pipet (Brinkmann Transferpette™-8 50-200 μL) and changing the tips of the eight channel pipet (200 μL Flex tips from Brinkmann) at each row, 150 μL of samples are transferred in the corresponding wells of a 96-well ELISA microtiter plate coated with antibodies. After the addition of the samples, the microtiter plates are covered and left standing at room temperature for 2 h. While the plate is left standing the substrate buffer without the hydrogen peroxide and o-phenylenediamine hydrochloride is prepared (25 mM citric acid and 50 mM sodium phosphate dibasic buffer, pH 5.0). The microtiter plate is washed 3 times with the IPBT solution and 3 times with a 0.05% Tween 20 solution and drained. Then, 50 […] of hydrogen peroxide and 40 mg of o-phenylenediamine are added to the substrate buffer. One hundred fifty microliters (150 μL) of the substrate buffer solution is then added to each well using a eight channel pipet (Brinkmann Transferpette™-8 50-200 μL) and 200 μL Flex tips (Brinkmann). The microtiter plate is covered and shaken for 25-30 min at room temperature and the enzymatic reaction is stopped by adding 50 μL/well of a 2.5 N HCl solution using an eight channel pipet (Brinkmann Transferpette™-8 50-200 μL) and 200 μL Flex tips (Brinkmann).

[19] = system: 1,7-DMX-Ab; experiment: Competitive antigen ELISA, antibody specificity of 1,7-DMX-Ab; assay type: binding, rabbit; details: hypothesized ideal antibody specificity; 0 = no inhibition or no higher than 40% at 5×10^−3 M
Description: as §1, §6

[20] = system: 1,7-DMU-Ab; experiment: Competitive antigen ELISA, antibody specificity of 1,7-DMU-Ab; assay type: binding, rabbit; details: hypothesized ideal antibody specificity; 0 = no inhibition or no higher than 40% at 5×10^−3 M
Description: as §1, §6

Nc1ccc(S(=O)(=O)c2ccc(N)cc2)cc1 [dapsone]
adverse reactions ([1]; fast acetylators): 17% | adverse reactions ([1]; slow acetylators): 46%

CN(C)CCN1C(=O)c2cccc3cc(N)cc(c23)C1=O [amonafide]
stability in dextrose-containing solutions [2]: very unstable | decomposition of reconstituted solution ([2]; reconstituted in normal saline, over 14 days at room temperature or under refrigeration): no decomposition | activity against L1210 leukemia [3]: significant activity | activity against p388 leukemia [4]: significant activity | activity against B16 melanoma [5]: significant activity | activity against M5076 sarcoma [6]: significant activity | preclinical toxicity [7]: reversible hematopoietic, gastrointestinal, renal and hepatic toxicity | neurotoxicity [8]: signs indicative of neurotoxicity | maximum tolerated dose (MTD) ([9]; bolus dose, OSU study (Leiby et al.)): 1125 mg/m^2 | maximum tolerated dose (MTD) ([9]; daily times five every 21 days, MDA (Legha et al.)): 400 mg/m^2 | maximum tolerated dose (MTD) ([9]; daily times five every 21 days, OSU (Leiby et al.)): 250 mg/m^2 | dose-limiting toxicity ([9]; single bolus and daily times five schedules): myelosuppression | maximum tolerated dose (MTD) ([9]; single bolus, UTSA (Saez et al.)): 800 mg/m^2 | binding to body tissues [10]: highly bound to body tissues | volume of distribution [10]: large | area under the plasma concentration-time curve, fast vs. slow acetylators [11]: significantly greater in fast acetylators | toxicity (myelosuppression), fast vs. slow acetylators [11]: fast acetylators had greater toxicity than slow acetylators | substrate of CYP1A2 [12]: substrate for CYP1A2 | antitumor activity in non-small cell lung cancer, prostate cancer and breast cancer ([13]; human, in vivo): antitumor activity | most common dose-limiting side effect ([13]; human, in vivo): granulocytopenia | neutropenia, day of nadir counts ([13]; previous clinical studies): 12 to 15 days | neutropenia, day of recovery ([13]; previous clinical studies): ~21 days

CC(=O)Nc1cc2c3c(cccc3c1)C(=O)N(CCN(C)C)C2=O [N-acetyl-amonafide]
potency relative to the parent drug amonafide [14]: approximately equipotent to the parent drug | effect on amonafide oxidation (CYP1A2) [12]: inhibition of amonafide oxidation

C[N+](C)([O-])CCN1C(=O)c2cccc3cc(N)cc(c23)C1=O [N-oxide-amonafide]
potency relative to the parent drug amonafide [14]: essentially inactive

COc1ccc2c(c1)[C@]13CCCC[C@@H]1[C@H](C2)N(C)CC3 [Dextromethorphan]
mean performance +/−SE ([15]; extensive metabolizers (EMs), p<0.05 vs PMs): 95+/−0.5% | mean performance +/−SE ([15]; poor metabolizers (PMs), p<0.05 vs EMs): 86+/−6%

Cn1cnc2[nH]c(=O)[nH]c(=O)c21 [7-Methyl Xanthine]
% Cross-Reaction AAMU-Ab [16]: 0% | % Cross-Reaction 1X-Ab [17]: 0% | % Cross-reaction Caffeine-Ab [18]: 0% | % Cross-reaction 1,7-DMX-Ab [19]: 0% | % Cross-reaction 1,7-DMU-Ab [20]: 0%

Cn1c(=O)[nH]c2[nH]c(=O)n(C)c2c1=O [1,7-Dimethyluric acid, 1,7-dimethyluric acid]
% Cross-Reaction AAMU-Ab [16]: 0% | % Cross-Reaction 1X-Ab [17]: 0% | % Cross-reaction Caffeine-Ab [18]: 0% | % Cross-reaction 1,7-DMX-Ab [19]: 0% | % Cross-reaction 1,7-DMU-Ab [20]: 100%
